The record followed here is patent US20140018347A1, “BENZOXAZEPINES AS INHIBITORS OF mTOR AND METHODS OF THEIR USE AND MANUFACTURE” (Exelixis, Inc., priority 2010, published 2014).

The target in one experiment is mTORC1 (Homo sapiens, UniProt P42345). Put plainly: mTOR/GbL/Raptor (mTORC1) ELISA Assay. Type of experiment: biochemical. Conditions: phosphorylation of 4E-BP1; 0.2 nM mTORC1, 10 μM ATP. The essentials:
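Kinase reaction: 0.2 nM mTORC1, 10 μM ATP, 50 nM NHis-4E-BP1 in Hepes pH 7.2 with 10 mM MnCl2, 120 min at ambient temperature. Phospho-4E-BP1 was captured on Ni-chelate plates and detected by anti-phospho-4E-BP1 rabbit IgG, HRP secondary and chemiluminescence.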
(In an ELISA, binding on a coated surface is turned into a signal by an enzyme label.)

For a further experiment, the target named is PI3Kalpha (Homo sapiens, UniProt P42336). The experiment is described as follows: PI3K Biochemical Assays (PI3K-alpha assay). Conditions: ATP consumption, luciferase-luciferin; 1 μM ATP, 10 μM PIP2. The procedure, abridged: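 Recombinant PI3Kα 3 nM, ATP 1 μM and PIP2 10 μM in Tris pH 7.5 with 10 mM MgCl2, ~2 h at ambient temperature. ATP depletion (held to 40-60%) was read by Kinase-Glo luminescence for IC50. Other isoforms: β 10 nM, δ 4 nM; γ 40 nM, 1 h, 5 mM MgCl2.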

Each structure is given as a SMILES string.

Sequence of PI3Kalpha (P42336 whole entry, canonical isoform): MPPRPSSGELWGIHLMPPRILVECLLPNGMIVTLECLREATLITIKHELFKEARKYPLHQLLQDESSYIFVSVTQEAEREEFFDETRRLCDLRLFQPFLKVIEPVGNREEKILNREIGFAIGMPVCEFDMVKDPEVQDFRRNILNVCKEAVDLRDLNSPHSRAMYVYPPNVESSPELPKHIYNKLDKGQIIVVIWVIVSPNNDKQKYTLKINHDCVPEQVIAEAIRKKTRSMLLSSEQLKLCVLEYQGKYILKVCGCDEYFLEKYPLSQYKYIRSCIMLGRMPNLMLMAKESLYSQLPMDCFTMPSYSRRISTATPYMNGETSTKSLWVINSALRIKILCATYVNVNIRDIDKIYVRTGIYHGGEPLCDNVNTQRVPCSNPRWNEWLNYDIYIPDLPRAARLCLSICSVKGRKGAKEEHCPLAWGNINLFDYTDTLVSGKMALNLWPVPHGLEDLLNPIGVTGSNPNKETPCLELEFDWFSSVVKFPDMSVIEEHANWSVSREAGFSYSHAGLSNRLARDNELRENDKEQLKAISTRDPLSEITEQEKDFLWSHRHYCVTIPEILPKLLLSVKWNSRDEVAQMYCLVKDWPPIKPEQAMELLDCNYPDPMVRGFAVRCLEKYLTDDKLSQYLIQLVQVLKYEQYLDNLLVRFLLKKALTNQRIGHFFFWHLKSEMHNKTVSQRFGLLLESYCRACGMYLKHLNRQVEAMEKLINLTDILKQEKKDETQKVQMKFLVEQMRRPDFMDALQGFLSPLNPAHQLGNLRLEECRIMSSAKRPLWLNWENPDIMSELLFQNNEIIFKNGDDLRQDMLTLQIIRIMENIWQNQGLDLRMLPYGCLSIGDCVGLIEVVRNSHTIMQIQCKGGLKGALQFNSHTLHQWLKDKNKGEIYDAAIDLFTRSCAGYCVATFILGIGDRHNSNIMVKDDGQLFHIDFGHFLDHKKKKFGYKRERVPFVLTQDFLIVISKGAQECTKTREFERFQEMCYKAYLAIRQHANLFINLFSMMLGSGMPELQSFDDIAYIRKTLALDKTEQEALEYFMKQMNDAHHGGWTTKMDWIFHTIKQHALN
Sequence of PI3Kalpha (P27986 whole entry partner, canonical isoform): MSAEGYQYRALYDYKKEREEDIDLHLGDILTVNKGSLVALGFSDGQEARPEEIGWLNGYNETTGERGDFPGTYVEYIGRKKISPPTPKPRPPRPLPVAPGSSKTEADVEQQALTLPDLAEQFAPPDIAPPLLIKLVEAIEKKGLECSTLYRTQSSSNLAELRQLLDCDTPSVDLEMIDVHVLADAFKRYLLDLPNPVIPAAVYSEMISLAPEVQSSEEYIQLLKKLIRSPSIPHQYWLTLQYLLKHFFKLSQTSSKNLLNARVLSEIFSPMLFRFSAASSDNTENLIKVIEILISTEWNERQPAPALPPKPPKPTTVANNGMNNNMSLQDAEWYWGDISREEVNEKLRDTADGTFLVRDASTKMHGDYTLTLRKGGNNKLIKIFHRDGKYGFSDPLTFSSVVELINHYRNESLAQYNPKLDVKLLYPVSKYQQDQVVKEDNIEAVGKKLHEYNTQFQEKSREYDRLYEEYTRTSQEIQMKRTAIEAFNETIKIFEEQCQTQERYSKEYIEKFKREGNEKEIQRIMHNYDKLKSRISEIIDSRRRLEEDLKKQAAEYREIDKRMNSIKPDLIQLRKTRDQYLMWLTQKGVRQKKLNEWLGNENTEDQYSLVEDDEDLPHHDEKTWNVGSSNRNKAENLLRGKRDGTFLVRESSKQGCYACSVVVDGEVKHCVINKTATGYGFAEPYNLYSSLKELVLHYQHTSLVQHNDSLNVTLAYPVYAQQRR

For `CC1CC(C)(C)Cc2c1nc(N)nc2N1CCOc2ccc(-c3cnc4sc(N)nc4c3)cc2C1` (centres unmarked) [Compound 57, 4-[7-(2-amino[1,3]thiazolo[5,4-b]pyridin-6-yl)-2,3-dihydro-1,4-benzoxazepin-4(5H)-yl]-6,6,8-trimethyl-5,6,7,8-tetrahydroquinazolin-2-amine], the IC50 at mTORC1 and at PI3Kalpha was at most 100 nM throughout.

Consider `Cc1nc(N)nc(N2CCOc3c(F)cc(-c4cnc5sc(N)nc5c4)cc3C2)c1C(C)C` [Compound 101, 6-{4-[2-amino-6-methyl-5-(1-methylethyl)pyrimidin-4-yl]-9-fluoro-2,3,4,5-tetrahydro-1,4-benzoxazepin-7-yl}[1,3]thiazolo[5,4-b]pyridin-2-amine], for which the IC50 against mTORC1 and against PI3Kalpha was at most 100 nM each time.

As for `C=CCc1c(C)nc(N)nc1N1CCOc2ccc(-c3cnc4sc(N)nc4c3)cc2C1` [Compound 83, 6-[4-(2-amino-6-methyl-5-prop-2-en-1-ylpyrimidin-4-yl)-2,3,4,5-tetrahydro-1,4-benzoxazepin-7-yl][1,3]thiazoloJ-[5,4-b]pyridin-2-amine], the IC50 against mTORC1 and on PI3Kalpha was at most 100 nM throughout.

For `C=Cc1cnc(N)nc1N1CCOc2ccc(-c3cnc4sc(N)nc4c3)cc2C1` [Compound 34, 6-[4-(2-amino-5-ethenylpyrimidin-4-yl)-2,3,4,5-tetrahydro-1,4-benzoxazepin-7-yl][1,3]thiazolo[5,4-b]pyridin-2-amine], the concentration for half-maximal inhibition (IC50) at mTORC1 and at PI3Kalpha was at most 100 nM each time.
